Experimental data reported in ChEMBL document CHEMBL5512659, “Structure optimizing of flavonoids against both MRSA and VRE” (Eur J Med Chem, 2024).
≈ marks a conversion by molar mass, not a printed value. Calls of active or inactive are those of the source. No cut-off for these calls is given here.

How the values were obtained:
Staphylococcus aureus [1] = assay: Antibacterial activity against methicillin resistant Staphylococcus aureus clinical isolate 003; type: functional
Staphylococcus aureus [2] = assay: Antibacterial activity against methicillin resistant Staphylococcus aureus clinical isolate 031; type: functional
Staphylococcus aureus [3] = assay: Antibacterial activity against methicillin resistant Staphylococcus aureus clinical isolate 011; type: functional
Staphylococcus aureus [4] = assay: Antibacterial activity against Staphylococcus aureus clinical isolate 29; type: functional
Staphylococcus aureus [5] = assay: Antibacterial activity against Staphylococcus aureus clinical isolate 31; type: functional
Enterococcus faecalis [6] = assay: Antibacterial activity against Enterococcus faecalis clinical isolate 7; type: functional
Enterococcus faecalis [7] = assay: Antibacterial activity in multidrug resistant Enterococcus faecalis ATCC 51299 at sub-MIC measured after 20 passages; type: functional, organism-based
Staphylococcus aureus [8] = assay: Bactericidal activity against methicillin-resistant Staphylococcus aureus clinical isolate 003 assessed as inhibition of bacterial growth by measuring ratio of MBC to MIC; type: functional
Enterococcus faecalis [9] = assay: Bactericidal activity against multidrug resistant Enterococcus faecalis ATCC 51299 assessed as inhibition of bacterial growth by measuring ratio of MBC to MIC; type: functional
Staphylococcus aureus [10] = assay: Antibacterial activity against methicillin-resistant Staphylococcus aureus clinical isolate 003 at 2 to 4 times MIC measured after 8 to 12 hrs by time-kill assay; type: functional, organism-based; conditions: time 8-12 hrs
Staphylococcus aureus [11] = assay: Antibiofilm activity in methicillin resistant Staphylococcus aureus clinical isolate 003 assessed as reduction in biofilm density at 0.5 to 4 times MIC measured after 24 hrs by inverted fluorescence microscopic analysis; type: functional, organism-based
Enterococcus faecalis [12] = assay: Antibiofilm activity in multidrug resistant Enterococcus faecalis ATCC 51299 assessed as reduction in biofilm density at 0.5 to 4 times MIC measured after 24 hrs by inverted fluorescence microscopic analysis; type: functional, organism-based
Staphylococcus aureus [13] = assay: Antibiofilm activity in methicillin resistant Staphylococcus aureus clinical isolate 003 assessed as destruction of biofilm integrity at 0.5 to 4 times MIC measured after 24 hrs by inverted fluorescence microscopic analysis; type: functional, organism-based
Enterococcus faecalis [14] = assay: Antibiofilm activity in multidrug resistant Enterococcus faecalis ATCC 51299 assessed as destruction of biofilm integrity at 0.5 to 4 times MIC measured after 24 hrs by inverted fluorescence microscopic analysis; type: functional, organism-based
Staphylococcus aureus [15] = assay: Antibiofilm activity in methicillin resistant Staphylococcus aureus clinical isolate 003 assessed as biofilm clearance rate at 4 times MIC by crystal violet staining based analysis relative to control; type: functional
Enterococcus faecalis [16] = assay: Antibiofilm activity in multidrug resistant Enterococcus faecalis ATCC 51299 assessed as biofilm clearance rate at 4 times MIC by crystal violet staining based analysis relative to control; type: functional
Staphylococcus aureus [17] = assay: Antibiofilm activity in methicillin resistant Staphylococcus aureus clinical isolate 003 assessed as biofilm clearance at 0.5 to 4 times MIC by crystal violet staining based analysis; type: functional, organism-based
Enterococcus faecalis [18] = assay: Antibiofilm activity in multidrug resistant Enterococcus faecalis ATCC 51299 assessed as biofilm clearance at 0.5 to 4 times MIC by crystal violet staining based analysis; type: functional, organism-based
Staphylococcus aureus [19] = assay: Antibiofilm activity in methicillin resistant Staphylococcus aureus clinical isolate 003 assessed as inhibition of biofilm formation at 4 times MIC by crystal violet staining based analysis relative to control; type: functional
Enterococcus faecalis [20] = assay: Antibiofilm activity in multidrug resistant Enterococcus faecalis ATCC 51299 assessed as inhibition of biofilm formation at 4 times MIC by crystal violet staining based analysis relative to control; type: functional
Cell membrane [21] = assay: Induction of membrane damage in methicillin resistant Staphylococcus aureus clinical isolate 003 assessed as rupture of bacterial surface at 2 to 4 times MIC by SEM analysis; type: cell membranes
Cell membrane [22] = assay: Induction of membrane damage in methicillin resistant Staphylococcus aureus clinical isolate 003 assessed as deformation of bacterial surface at 2 to 4 times MIC by SEM analysis; type: cell membranes
Cell membrane [23] = assay: Induction of membrane damage in multidrug resistant Enterococcus faecalis ATCC 51299 assessed as rupture of bacterial surface at 2 to 4 times MIC by SEM analysis; type: cell membranes
Cell membrane [24] = assay: Induction of membrane damage in multidrug resistant Enterococcus faecalis ATCC 51299 assessed as deformation of bacterial surface at 2 to 4 times MIC by SEM analysis; type: cell membranes
Staphylococcus aureus [25] = assay: Antibacterial activity against methicillin resistant Staphylococcus aureus clinical isolate 003 in presence of peptidoglycan; type: functional, organism-based
Staphylococcus aureus [26] = assay: Antibacterial activity against methicillin resistant Staphylococcus aureus clinical isolate 003 in presence of phosphatidylglycerol; type: functional, organism-based
Staphylococcus aureus [27] = assay: Antibacterial activity against methicillin resistant Staphylococcus aureus clinical isolate 003 in presence of phosphatidylethanolamine; type: functional, organism-based
Staphylococcus aureus [28] = assay: Antibacterial activity against methicillin resistant Staphylococcus aureus clinical isolate 003 in presence of cardiolipin; type: functional, organism-based
Enterococcus faecalis [29] = assay: Antibacterial activity against multidrug resistant Enterococcus faecalis ATCC 51299 in presence of peptidoglycan; type: functional, organism-based
Enterococcus faecalis [30] = assay: Antibacterial activity against multidrug resistant Enterococcus faecalis ATCC 51299 in presence of phosphatidylglycerol; type: functional, organism-based
Enterococcus faecalis [31] = assay: Antibacterial activity against multidrug resistant Enterococcus faecalis ATCC 51299 in presence of phosphatidylethanolamine; type: functional, organism-based
Enterococcus faecalis [32] = assay: Antibacterial activity against multidrug resistant Enterococcus faecalis ATCC 51299 in presence of cardiolipin; type: functional, organism-based
Cell membrane [33] = assay: Disruption of membrane permeability in multidrug resistant Enterococcus faecalis ATCC 51299 assessed as increase in fluorescence intensity at 4 to 8 times MIC by PI staining based analysis
Cell membrane [34] = assay: Disruption of membrane permeability in methicillin resistant Staphylococcus aureus clinical isolate 003 assessed as protein leakage at 2 to 4 times MIC
Cell membrane [35] = assay: Disruption of membrane permeability in multidrug resistant Enterococcus faecalis ATCC 51299 assessed as protein leakage at 2 to 4 times MIC; type: cell membranes
Cell membrane [36] = assay: Disruption of membrane permeability in methicillin resistant Staphylococcus aureus clinical isolate 003 assessed as nucleic acid leakage at 2 to 4 times MIC
Cell membrane [37] = assay: Disruption of membrane permeability in multidrug resistant Enterococcus faecalis ATCC 51299 assessed as nucleic acid leakage at 2 to 4 times MIC
Cell membrane [38] = assay: Disruption of membrane permeability in methicillin resistant Staphylococcus aureus clinical isolate 003 assessed as increase in ROS accumulation at 2 to 4 times MIC measured after 1 hr
Cell membrane [39] = assay: Disruption of membrane permeability in multidrug resistant Enterococcus faecalis ATCC 51299 assessed as increase in ROS accumulation at 2 to 4 times MIC measured after 1 hr
Cell membrane [40] = assay: Disruption of membrane permeability in methicillin resistant Staphylococcus aureus clinical isolate 003 assessed as increase in malondialdehyde level
Cell membrane [41] = assay: Disruption of membrane permeability in multidrug resistant Enterococcus faecalis ATCC 51299 assessed as increase in malondialdehyde level
Cell membrane [42] = assay: Induction of cell membrane damage in multidrug resistant Enterococcus faecalis ATCC 51299 assessed as increase in green fluorescence at 2 to 4 times MIC by SYTOX Green dye based analysis; type: cell membranes
Cell membrane [43] = assay: Induction of cell membrane damage in multidrug resistant Enterococcus faecalis ATCC 51299 assessed as increase in red fluorescence at 2 to 4 times MIC by PI staining based analysis; type: cell membranes
Cell membrane [44] = assay: Induction of cell membrane damage in multidrug resistant Enterococcus faecalis ATCC 51299 assessed as bacterial death at 2 to 4 times MIC by confocal laser scanning microscopy; type: cell membranes

CCCCCCc1c(-c2ccc(OCCCCN(C)C)cc2OCCCCN(C)C)oc2cc(OC)cc(O)c2c1=O
MIC (Staphylococcus aureus [1]): 0.5 µg/mL (≈ 0.858 µM)
MIC (Staphylococcus aureus [2]): 1 µg/mL (≈ 1.72 µM)
MIC (Staphylococcus aureus [3]): 1 µg/mL (≈ 1.72 µM)
MIC (Staphylococcus aureus [4]): 0.5 µg/mL (≈ 0.858 µM)
MIC (Staphylococcus aureus [5]): 1 µg/mL (≈ 1.72 µM)
MIC (Enterococcus faecalis [6]): 1 µg/mL (≈ 1.72 µM)
Activity (Enterococcus faecalis [7]): Active
Ratio (Staphylococcus aureus [8]): <4
Ratio (Enterococcus faecalis [9]): <4
Activity (Staphylococcus aureus [10]): Active
Activity (Staphylococcus aureus [11]): Dose-Dependent Effect
Activity (Enterococcus faecalis [12]): Dose-Dependent Effect
Activity (Staphylococcus aureus [13]): Dose-Dependent Effect
Activity (Enterococcus faecalis [14]): Dose-Dependent Effect
Activity (Staphylococcus aureus [15]): ~80%
Activity (Enterococcus faecalis [16]): ~80%
Activity (Staphylococcus aureus [17]): Dose-Dependent Effect
Activity (Enterococcus faecalis [18]): Dose-Dependent Effect
inhibition (INH) (Staphylococcus aureus [19]): >90%
inhibition (INH) (Enterococcus faecalis [20]): >90%
Activity (Cell membrane [21]): Active
Activity (Cell membrane [22]): Active
Activity (Cell membrane [23]): Active
Activity (Cell membrane [24]): Active
Activity (Staphylococcus aureus [25]): Active
Activity (Staphylococcus aureus [26]): inactive
Activity (Staphylococcus aureus [27]): inactive
Activity (Staphylococcus aureus [28]): inactive
Activity (Enterococcus faecalis [29]): Active
Activity (Enterococcus faecalis [30]): inactive
Activity (Enterococcus faecalis [31]): inactive
Activity (Enterococcus faecalis [32]): inactive
Activity (Cell membrane [33]): Active
Activity (Cell membrane [34]): Active
Activity (Cell membrane [35]): Active
Activity (Cell membrane [36]): Active
Activity (Cell membrane [37]): Active
Activity (Cell membrane [38]): Active
Activity (Cell membrane [39]): Active
Activity (Cell membrane [40]): Active
Activity (Cell membrane [41]): Active
Activity (Cell membrane [42]): Active
Activity (Cell membrane [43]): Active
Activity (Cell membrane [44]): Active

CCCCCCc1c(-c2ccc(OCC(=O)CN[C@H](CCCNC(=N)N)C(=O)OC)cc2OCC(=O)CN[C@H](CCCNC(=N)N)C(=O)OC)oc2cc(OC)cc(O)c2c1=O
MIC (Staphylococcus aureus [1]): 1 µg/mL (≈ 1.15 µM)
MIC (Staphylococcus aureus [2]): 2 µg/mL (≈ 2.3 µM)
MIC (Staphylococcus aureus [3]): 1 µg/mL (≈ 1.15 µM)
MIC (Staphylococcus aureus [4]): 2 µg/mL (≈ 2.3 µM)
MIC (Staphylococcus aureus [5]): 1 µg/mL (≈ 1.15 µM)
MIC (Enterococcus faecalis [6]): 64 µg/mL (≈ 73.6 µM)
Activity (Enterococcus faecalis [7]): Active
Ratio (Staphylococcus aureus [8]): <4
Ratio (Enterococcus faecalis [9]): <4
Activity (Staphylococcus aureus [10]): Active
Activity (Staphylococcus aureus [11]): Dose-Dependent Effect
Activity (Enterococcus faecalis [12]): Dose-Dependent Effect
Activity (Staphylococcus aureus [13]): Dose-Dependent Effect
Activity (Enterococcus faecalis [14]): Dose-Dependent Effect
Activity (Staphylococcus aureus [15]): ~80%
Activity (Enterococcus faecalis [16]): ~80%
Activity (Staphylococcus aureus [17]): Dose-Dependent Effect
Activity (Enterococcus faecalis [18]): Dose-Dependent Effect
inhibition (INH) (Staphylococcus aureus [19]): >90%
inhibition (INH) (Enterococcus faecalis [20]): >90%
Activity (Cell membrane [21]): Active
Activity (Cell membrane [22]): Active
Activity (Cell membrane [23]): Active
Activity (Cell membrane [24]): Active
Activity (Staphylococcus aureus [25]): Active
Activity (Staphylococcus aureus [26]): inactive
Activity (Staphylococcus aureus [27]): inactive
Activity (Staphylococcus aureus [28]): inactive
Activity (Enterococcus faecalis [29]): Active
Activity (Enterococcus faecalis [30]): inactive
Activity (Enterococcus faecalis [31]): inactive
Activity (Enterococcus faecalis [32]): inactive
Activity (Cell membrane [33]): Active
Activity (Cell membrane [34]): Active
Activity (Cell membrane [35]): Active
Activity (Cell membrane [36]): Active
Activity (Cell membrane [37]): Active
Activity (Cell membrane [38]): Active
Activity (Cell membrane [39]): Active
Activity (Cell membrane [40]): Active
Activity (Cell membrane [41]): Active
Activity (Cell membrane [42]): Active
Activity (Cell membrane [43]): Active
Activity (Cell membrane [44]): Active

CCCCCCc1c(-c2ccc(OCCCCNCCCN)cc2OCCCCNCCCN)oc2cc(OC)cc(O)c2c1=O
MIC (Staphylococcus aureus [1]): 0.25 µg/mL (≈ 0.39 µM)
MIC (Staphylococcus aureus [2]): 0.25 µg/mL (≈ 0.39 µM)
MIC (Staphylococcus aureus [3]): 0.25 µg/mL (≈ 0.39 µM)
MIC (Staphylococcus aureus [4]): 0.5 µg/mL (≈ 0.78 µM)
MIC (Staphylococcus aureus [5]): 0.25 µg/mL (≈ 0.39 µM)
MIC (Enterococcus faecalis [6]): 1 µg/mL (≈ 1.56 µM)
Activity (Enterococcus faecalis [7]): Active
Ratio (Staphylococcus aureus [8]): <4
Ratio (Enterococcus faecalis [9]): <4
Activity (Staphylococcus aureus [10]): Active
Activity (Staphylococcus aureus [11]): Dose-Dependent Effect
Activity (Enterococcus faecalis [12]): Dose-Dependent Effect
Activity (Staphylococcus aureus [13]): Dose-Dependent Effect
Activity (Enterococcus faecalis [14]): Dose-Dependent Effect
Activity (Staphylococcus aureus [15]): ~80%
Activity (Enterococcus faecalis [16]): ~80%
Activity (Staphylococcus aureus [17]): Dose-Dependent Effect
Activity (Enterococcus faecalis [18]): Dose-Dependent Effect
inhibition (INH) (Staphylococcus aureus [19]): >90%
inhibition (INH) (Enterococcus faecalis [20]): >90%
Activity (Cell membrane [21]): Active
Activity (Cell membrane [22]): Active
Activity (Cell membrane [23]): Active
Activity (Cell membrane [24]): Active
Activity (Staphylococcus aureus [25]): Active
Activity (Staphylococcus aureus [26]): inactive
Activity (Staphylococcus aureus [27]): inactive
Activity (Staphylococcus aureus [28]): inactive
Activity (Enterococcus faecalis [29]): Active
Activity (Enterococcus faecalis [30]): inactive
Activity (Enterococcus faecalis [31]): inactive
Activity (Enterococcus faecalis [32]): inactive
Activity (Cell membrane [33]): Active
Activity (Cell membrane [34]): Active
Activity (Cell membrane [35]): Active
Activity (Cell membrane [36]): Active
Activity (Cell membrane [37]): Active
Activity (Cell membrane [38]): Active
Activity (Cell membrane [39]): Active
Activity (Cell membrane [40]): Active
Activity (Cell membrane [41]): Active
Activity (Cell membrane [42]): Active
Activity (Cell membrane [43]): Active
Activity (Cell membrane [44]): Active
